# Experimental data: patent US20180044343A1, “BICYCLIC IMIDAZOLO DERIVATIVE” (Sumitomo Dainippon Pharma Co., Ltd., priority 2015, published 2018)
# pIC50: −log10 of the molar value.
# Biological target: PDE1B (Homo sapiens, UniProt Q01064)
# Assay: In vitro HTRF PDE1 inhibition assay (PDE1B)
# Format: biochemical
# Details: not given
# PDE1B, sequence (Q01064 whole entry): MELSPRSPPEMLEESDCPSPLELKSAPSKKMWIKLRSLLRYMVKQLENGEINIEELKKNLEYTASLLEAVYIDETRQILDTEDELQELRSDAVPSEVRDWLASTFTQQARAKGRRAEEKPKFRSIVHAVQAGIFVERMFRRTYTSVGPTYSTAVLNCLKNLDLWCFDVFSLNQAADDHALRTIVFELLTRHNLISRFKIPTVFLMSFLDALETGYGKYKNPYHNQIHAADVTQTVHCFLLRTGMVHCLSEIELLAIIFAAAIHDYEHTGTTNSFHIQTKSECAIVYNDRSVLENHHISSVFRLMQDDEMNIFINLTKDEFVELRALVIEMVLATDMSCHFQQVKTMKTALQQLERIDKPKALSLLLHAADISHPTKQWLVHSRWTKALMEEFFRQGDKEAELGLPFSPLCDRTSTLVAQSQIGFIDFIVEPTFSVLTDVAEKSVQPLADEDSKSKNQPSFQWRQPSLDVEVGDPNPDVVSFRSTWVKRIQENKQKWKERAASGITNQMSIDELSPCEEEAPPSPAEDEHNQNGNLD
row,SMILES,pIC50
1,"Cc1ccc([C@H]2CCCN2c2nn3c(C(C)C)ncc3c(=O)n2C)cn1 [Example 216, 3-Methyl-2-[(2R)-2-(6-methylpyridin-3-yl)pyrrolidin-1-yl]-7-(propan-2-yl)imidazo[5,1-f][1,2,4]triazin-4(3H)-one]",> 6.00

# Same assay, conditions: in vitro PDE1B HTRF Assay; read-out: IC50
row,SMILES,pIC50
1,"O=c1c2cnc(C3CCOCC3)n2nc(N2CCCC2)n1CC1CC1 [Example 206, 3-(Cyclopropylmethyl)-2-(pyrrolidin-1-yl)-7-(tetrahydro-2H-pyran-4-yl)imidazo[5,1-f][1,2,4]triazin-4(3H)-one]",5.00 to 6.00
2,CC(C)n1c(N2CCCC2)nn2c(C3CCOCC3)ncc2c1=O [Example 207],4.00 to 5.00
3,CC(C)Cn1c(N2CCCC2)nn2c(C3CCOCC3)ncc2c1=O [Example 208],5.00 to 6.00
4,O=c1c2cnc(C3CCOCC3)n2nc(N2CCCC2)n1CCC(F)(F)F [Example 209],4.00 to 5.00
5,COCCn1c(N2CCCC2)nn2c(C3CCOCC3)ncc2c1=O [Example 210],4.00 to 5.00
6,O=c1c2cnc(C3CCOCC3)n2nc(N2CCCC2)n1CC1CCC1 [Example 211],4.00 to 5.00
7,O=c1c2cnc(C3CCOCC3)n2nc(N2CCCC2)n1CC1CCCC1 [Example 212],4.00 to 5.00
8,O=c1c2cnc(C3CCOCC3)n2nc(N2CCCC2)n1CC1CCCCC1 [Example 213],5.00 to 6.00
9,O=c1c2cnc(C3CCOCC3)n2nc(N2CCCC2)n1CC1CCOCC1 [Example 214],4.00 to 5.00
10,O=c1c2cnc(C3CCOCC3)n2nc(N2CCCC2)n1CCC1CCOCC1 [Example 215],4.00 to 5.00
11,"Cc1ccc([C@@H]2CCCN2c2nn3c(C(C)C)ncc3c(=O)n2C)cn1 [Example 217, 3-Methyl-2-[(2S)-2-(6-methylpyridin-3-yl)pyrrolidin-1-yl]-7-(propan-2-yl)imidazo[5,1-f][1,2,4]triazin-4(3H)-one]",5.00 to 6.00
12,"Cc1ccc([C@H]2CCCN2c2nn3c(C(C)C)ncc3c(=O)n2C)nc1 [Example 218, 3-Methyl-2-[(2R)-2-(5-methylpyridin-2-yl)pyrrolidin-1-yl]-7-(propan-2-yl)imidazo[5,1-f][1,2,4]triazin-4(3H)-one]",> 6.00
13,"Cc1ccc([C@@H]2CCCN2c2nn3c(C(C)C)ncc3c(=O)n2C)nc1 [Example 219, 3-Methyl-2-[(2S)-2-(5-methylpyridin-2-yl)pyrrolidin-1-yl]-7-(propan-2-yl)imidazo[5,1-f][1,2,4]triazin-4(3H)-one]",> 6.00
14,"COCCN1CCCN(c2nn3c(C4CCOCC4)ncc3c(=O)n2C)CC1 [Example 220, 2-[4-(2-Methoxyethyl)-1,4-diazepan-1-yl]-3-methyl-7-(tetrahydro-2H-pyran-4-yl)imidazo[5,1-f][1,2,4]triazin-4(3H)-one]",4.00 to 5.00
15,"COCC(=O)N1CCCN(c2nn3c(C4CCOCC4)ncc3c(=O)n2C)CC1 [Example 221, 2-[4-(Methoxyacetyl)-1,4-diazepan-1-yl]-3-methyl-7-(tetrahydro-2H-pyran-4-yl)imidazo[5,1-f][1,2,4]triazin-4(3H)-one]",5.00 to 6.00
16,"CN(C)CC(=O)N1CCCN(c2nn3c(C4CCOCC4)ncc3c(=O)n2C)CC1 [Example 222, 2-{4-[(Dimethylamino)acetyl]-1,4-diazepan-1-yl}-3-methyl-7-(tetrahydro-2H-pyran-4-yl)imidazo[5,1-f][1,2,4]triazin-4(3H)-one]",4.00 to 5.00
17,"CC(C)c1ncc2c(=O)n(C)c(COc3ccc(Cl)cc3)nn12 [Example 223, 2-[(4-Chlorophenoxy)methyl]-3-methyl-7-(propan-2-yl)imidazo[5,1-f][1,2,4]triazin-4(3H)-one]",5.00 to 6.00
18,Cc1ccc(OCc2nn3c(C(C)C)ncc3c(=O)n2C)cc1 [Example 225],5.00 to 6.00
19,CC(C)c1ncc2c(=O)n(C)c(COc3ccc(F)cc3)nn12 [Example 226],> 6.00
20,Cc1ccc(OCc2nn3c(C4CCCC4)ncc3c(=O)n2C)cc1 [Example 227],5.00 to 6.00

row,SMILES,pIC50
1,Cn1c(COc2ccc(F)cc2)nn2c(C3CCCC3)ncc2c1=O [Example 228],5.00 to 6.00
2,"CC(C)c1ncc2c(=O)n(C)c(CN3CCCc4cc(Cl)ccc43)nn12 [Example 229, 2-[(6-Chloro-3,4-dihydroquinolin-1(2H)-yl)methyl]-3-methyl-7-(propan-2-yl)imidazo[5,1-f][1,2,4]triazin-4(3H)-one]",> 6.00
3,"CC(C)c1ncc2c(=O)n(C)c(CN(C)c3ccc(C(F)(F)F)cc3)nn12 [Example 230, 3-Methyl-2-({methyl[4-(trifluoromethyl)phenyl]amino}methyl)-7-(propan-2-yl)imidazo[5,1-f][1,2,4]triazin-4(3H)-one]",> 6.00
4,"Cn1c(CN2Cc3ccccc3C2=O)nn2c(C3CCCC3)ncc2c1=O [Example 231, 7-Cyclopentyl-3-methyl-2-[(1-oxo-1,3-dihydro-2H-isoindol-2-yl)methyl]imidazo[5,1-f][1,2,4]triazin-4(3H)-one]",> 6.00
5,CC(C)c1ncc2c(=O)n(C)c(CN3Cc4ccccc4C3=O)nn12 [Example 232],5.00 to 6.00
6,Cn1c(CN2CCCc3cc(Cl)ccc32)nn2c(C3CCCC3)ncc2c1=O [Example 233],> 6.00
7,Cn1c(CN2C(=O)c3ccccc3C2=O)nn2c(C3CCCC3)ncc2c1=O [Example 234],> 6.00
8,CN(Cc1nn2c(C3CCCC3)ncc2c(=O)n1C)c1ccc(C(F)(F)F)cc1 [Example 235],> 6.00
9,"Cc1ccc(-c2nn3c(C4CCOCC4)ncc3c(=O)n2C)cc1 [Example 236, 3-Methyl-2-(4-methylphenyl)-7-(tetrahydro-2H-pyran-4-yl)imidazo[5,1-f][1,2,4]triazin-4(3H)-one]",> 6.00
10,"Cc1nn2c(C3CCOCC3)ncc2c(=O)n1CC1CCC(F)(F)CC1 [Example 237, 3-[(4,4-Difluorocyclohexyl)methyl]-2-methyl-7-(tetrahydro-2H-pyran-4-yl)imidazo[5,1-f][1,2,4]triazin-4(3H)-one]",> 6.00
11,"Cn1c(/C=C/c2ccc(F)cc2)nn2c(C3CCOCC3)ncc2c1=O [Example 240, 2-[(E)-2-(4-Fluorophenyl)ethenyl]-3-methyl-7-(tetrahydro-2H-pyran-4-yl)imidazo[5,1-f][1,2,4]triazin-4(3H)-one]",> 6.00
12,"Cn1c(CCc2ccc(F)cc2)nn2c(C3CCOCC3)ncc2c1=O [Example 241, 2-[2-(4-Fluorophenyl)ethyl]-3-methyl-7-(tetrahydro-2H-pyran-4-yl)imidazo[5,1-f][1,2,4]triazin-4(3H)-one]",> 6.00
13,"COc1ccc(CCc2nn3c(C4CCOCC4)ncc3c(=O)n2C)cc1 [Example 243, 2-[2-(4-Methoxyphenyl)ethyl]-3-methyl-7-(tetrahydro-2H-pyran-4-yl)imidazo[5,1-f][1,2,4]triazin-4(3H)-one]",> 6.00
14,"Cn1c(CCc2ccccn2)nn2c(C3CCOCC3)ncc2c1=O [Example 244, 3-Methyl-2-[2-(pyridin-2-yl)ethyl]-7-(tetrahydro-2H-pyran-4-yl)imidazo[5,1-f][1,2,4]triazin-4(3H)-one]",> 6.00
15,"Cn1c(OC[C@H]2CC[C@@H](C(F)(F)F)CC2)nn2c(C3CCOCC3)ncc2c1=O [Example 248, 3-methyl-7-(tetrahydro-2H-pyran-4-yl)-2-{[cis-4-(trifluoromethyl)cyclohexyl]methoxy}-imidazo[5,1-f][1,2,4]triazin-4(3H)-one]",> 6.00
16,CCO[C@H]1CC[C@@H](COc2nn3c(C4CCOCC4)ncc3c(=O)n2CC)CC1 [Example 250],> 6.00
17,CCn1c(OC[C@H]2CC[C@@H](C(F)(F)F)CC2)nn2c(C3CCOCC3)ncc2c1=O [Example 252],> 6.00
18,"Cn1c(O[C@H]2CC[C@H](C)CC2)nn2c(C3CCOCC3)ncc2c1=O [Example 254, 3-Methyl-2-[(trans-4-methylcyclohexyl)oxy]-7-(tetrahydro-2H-pyran-4-yl)imidazo[5,1-f][1,2,4]triazin-4(3H)-one]",> 6.00
19,"CCn1c(COc2ccc(F)cc2)nn2c(C3CCOCC3)ncc2c1=O [Example 259, 3-Ethyl-2-[(4-fluorophenoxy)methyl]-7-(tetrahydro-2H-pyran-4-yl)imidazo[5,1-f][1,2,4]triazin-4(3H)-one]",> 6.00
20,"CCn1c(COC2CCC(F)(F)CC2)nn2c(C3CCOCC3)ncc2c1=O [Example 260, 2-{[(4,4-Difluorocyclohexyl)oxy]methyl}-3-ethyl-7-(tetrahydro-2H-pyran-4-yl)imidazo[5,1-f][1,2,4]triazin-4(3H)-one]",> 6.00

row,SMILES,pIC50
1,COc1nn2c(C(C)C)ncc2c(=O)n1Cc1ccccn1 [Example 262],> 6.00
2,COc1nn2c(C(C)C)ncc2c(=O)n1CC1CCC(F)(F)CC1 [Example 263],> 6.00
3,COc1nn2c(C3CCOCC3)ncc2c(=O)n1Cc1ccc(C)cc1 [Example 264],> 6.00
4,COc1ccc(Cn2c(OC)nn3c(C4CCOCC4)ncc3c2=O)cc1 [Example 265],> 6.00
5,COc1cccc(Cn2c(OC)nn3c(C4CCOCC4)ncc3c2=O)c1 [Example 266],> 6.00
6,COc1nn2c(C3CCOCC3)ncc2c(=O)n1Cc1cccnc1 [Example 267],5.00 to 6.00
7,COc1nn2c(C3CCOCC3)ncc2c(=O)n1Cc1ccccn1 [Example 268],5.00 to 6.00
8,COc1nn2c(C3CCOCC3)ncc2c(=O)n1Cc1ccc(F)cn1 [Example 269],> 6.00
9,CCCn1c(OC)nn2c(C3CCOCC3)ncc2c1=O [Example 270],> 6.00
10,COc1nn2c(C3CCOCC3)ncc2c(=O)n1CC(C)C [Example 271],> 6.00
11,COc1nn2c(C3CCOCC3)ncc2c(=O)n1CC1CC1 [Example 272],> 6.00
12,COc1nn2c(C3CCOCC3)ncc2c(=O)n1CC1CCC1 [Example 273],> 6.00
13,COc1nn2c(C3CCOCC3)ncc2c(=O)n1CC1CCCC1 [Example 274],> 6.00
14,COc1nn2c(C3CCOCC3)ncc2c(=O)n1CC1CCCCC1 [Example 275],> 6.00
15,COc1nn2c(C3CCOCC3)ncc2c(=O)n1CCC(F)(F)F [Example 276],5.00 to 6.00
16,COCCn1c(OCC2CCC(F)(F)CC2)nn2c(C3CCOCC3)ncc2c1=O [Example 277],5.00 to 6.00
17,COCCn1c(OCC2CCC(F)(F)CC2)nn2c(C(C)C)ncc2c1=O [Example 278],> 6.00
18,COCCn1c(OCc2ccc(F)cc2)nn2c(C3CCOCC3)ncc2c1=O [Example 279],> 6.00
19,COc1nn2c(C3CCOCC3)ncc2c(=O)n1Cc1ccc(C#N)cc1 [Example 280],4.00 to 5.00
